Measurements: US20240376094A2, “SELECTIVE BCL-XL PROTAC COMPOUNDS AND METHODS OF USE” (Les Laboratoires Servier, priority 2021, published 2024)
pIC50: −log10 of the molar value.

Assays:
Type in all cases: cell-based
MOLT-4 cells = assay: MOLT-4 cell viability, MTT assay; conditions: Homo sapiens, MOLT-4, 48 h
Method in brief: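 MOLT-4 cells in RPMI 1640 with 10% FBS were exposed to compounds for 48 h at 9 concentrations (3.16-fold dilutions, triplicates). After 4 h with MTT and overnight SDS/HCl solubilisation, absorbance was read at 540 nm. IC50 came from four-parameter fits versus control, as the mean of ≥2 independent experiments.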

COR-L105 = assay: CellTiter-Glo proliferation assay, COR-L105; conditions: Homo sapiens, COR-L105, 120 h, COR-L105, 5 days; for Emax: read-out: COR-L105 Span (max)
Method in brief: (§1)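 Both lines grown in RPMI-1640 + 10% FBS. COR-L105 plated flat at 1,000 cells/well overnight; NCI-H1650 grown as spheroids, 3,000 cells/well, 72 h. Compounds at 0.508 nM-10 μM final for 5 days, 37° C. ATP read by CellTiter-Glo (3D version for spheroids); IC50 from variable-slope fit normalized to untreated cells.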

NCI-H1650 = assay: CellTiter-Glo 3D proliferation assay, NCI-H1650 spheroids; conditions: Homo sapiens, NCI-H1650, 120 h, 5 days; for Emax: read-out: NCI-H1650 Span (Amax)
Method in brief: as §1

| Compound | pIC50 (MOLT-4 cells) | pIC50 (NCI-H1650) | pIC50 (COR-L105) | Emax (COR-L105) [%] | Emax (NCI-H1650) [%] |
| --- | --- | --- | --- | --- | --- |
| Cc1ncsc1-c1ccc(CNC(=O)C2C[C@@H](O)CN2C(=O)C(NC(=O)CCCCCC(=O)N2CCN(CC#Cc3ccc(OCCCc4sc(N5CCCc6c5nnc(Nc5nc7ccccc7s5)c6C)nc4C(=O)O)c(F)c3)CC2)C(C)(C)C)cc1 (stereo in doubt) [Example 15, 2-[3-(1,3-benzothiazol-2-ylamino)-4-methyl-6,7-dihydro-5H-pyrido[2,3-c]pyridazin-8-yl]-5-[3-[2-fluoro-4-[3-[4-[7-[[(1S)-1-[(2S,4R)-4-hydroxy-2-[[4-(4-methylthiazol-5-yl)phenyl]methylcarbamoyl]pyrrolidine-1-carbonyl]-2,2-dimethyl-propyl]amino]-7-oxo-heptanoyl]piperazin-1-yl]prop-1-ynyl]phenoxy]propyl] thiazole-4-carboxylic acid] | 8.25 |  |  |  |  |
| Cc1ncsc1-c1ccc([C@H](C)NC(=O)C2CC(O)CN2C(=O)C(NC(=O)CCCCCCCCCCCN2CCN(CC#Cc3ccc(OCCCc4sc(N5CCCc6c5nnc(Nc5nc7ccccc7s5)c6C)nc4C(=O)O)c(F)c3)CC2)C(C)(C)C)cc1 (stereo in doubt) [Example 31, 2-[3-(1,3-benzothiazol-2-ylamino)-4-methyl-6,7-dihydro-5H-pyrido[2,3-c]pyridazin-8-yl]-5-[3-[2-fluoro-4-[3-[4-[12-[[(1S)-1-[(2S,4R)-4-hydroxy-2-[[(1S)-1-[4-(4-methylthiazol-5-yl)phenyl]ethyl]carbamoyl]pyrrolidine-1-carbonyl]-2,2-dimethyl-propyl]amino]-12-oxo-dodecyl]piperazin-1-yl]prop-1-ynyl]phenoxy]propyl] thiazole-4-carboxylic acid] | 8.09 |  |  |  |  |
| Cc1ncsc1-c1ccc([C@H](C)NC(=O)[C@@H]2C[C@@H](O)CN2C(=O)[C@@H](NC(=O)CCCCCCCCCCCCCCCN(C)CCOC23CC4(C)CC(C)(CC(Cn5ncc(-c6ccc(N7CCCc8c7nnc(Nc7nc9ccccc9s7)c8C)nc6C(=O)O)c5C)(C4)C2)C3)C(C)(C)C)cc1 [Example 1, 6-[3-(1,3-benzothiazol-2-ylamino)-4-methyl-6,7-dihydro-5H-pyrido[2,3-c]pyridazin-8-yl]-3-[1-[[3-[2-[[16-[[(1S)-1-[(2S,4R)-4-hydroxy-2-[[(1S)-1-[4-(4-methylthiazol-5-yl)phenyl]ethyl]carbamoyl]pyrrolidine-1-carbonyl]-2,2-dimethyl-propyl]amino]-16-oxo-hexadecyl]-methyl-amino]ethoxy]-5,7-dimethyl-1-adamantyl]methyl]-5-methyl-pyrazol-4-yl]pyridine-2-carboxylic acid] | 9.20 |  |  |  |  |
| Cc1ncsc1-c1ccc(CNC(=O)[C@@H]2C[C@@H](O)CN2C(=O)[C@@H](NC(=O)CCCCCCC(=O)N2CCN(CC#Cc3ccc(OCCCc4sc(N5CCCc6c5nnc(Nc5nc7ccccc7s5)c6C)nc4C(=O)O)c(F)c3)CC2)C(C)(C)C)cc1 [Example 33, 2-(3-(benzo[d]thiazol-2-ylamino)-4-methyl-6,7-dihydropyrido [2,3-c]pyridazin-8(5H)-yl)-5-(3-(2-fluoro-4-(3-(4-(8-(((S)-1-((2S,4R)-4-hydroxy-2-((4-(4-methylthiazol-5-yl)benzyl)carbamoyl)pyrrolidin-1-yl)-3,3-dimethyl-1-oxobutan-2-yl)amino)-8-oxooctanoyl)piperazin-1-yl)prop-1-yn-1-yl)phenoxy)propyl) thiazole-4-carboxylic acid] |  | 8.09 | 7.03 | 76.4 | 89.1 |
| Cc1ncsc1-c1ccc([C@H](C)NC(=O)[C@@H]2C[C@@H](O)CN2C(=O)[C@@H](NC(=O)CCCCCCCCCCC(=O)N2CCN(CCOC34CC5(C)CC(C)(CC(Cn6ncc(-c7ccc(N8CCCc9c8nnc(Nc8nc%10ccccc%10s8)c9C)nc7C(=O)O)c6C)(C5)C3)C4)CC2)C(C)(C)C)cc1 [Example 47, 6-(3-(benzo[d]thiazol-2-ylamino)-4-methyl-6,7-dihydropyrido [2,3-c]pyridazin-8(5H)-yl)-3-(1-(((1r,3s,5R,7S)-3-(2-(4-(12-(((S)-1-((2S,4R)-4-hydroxy-2-(((S)-1-(4-(4-methylthiazol-5-yl)phenyl)ethyl)carbamoyl)pyrrolidin-1-yl)-3,3-dimethyl-1-oxobutan-2-yl)amino)-12-oxododecanoyl)piperazin-1-yl)ethoxy)-5,7-dimethyladamantan-1-yl)methyl)-5-methyl-1H-pyrazol-4-yl)picolinic acid] |  | 7.90 | 6.64 | 97.6 | 97.1 |
| Cc1ncsc1-c1ccc(CNC(=O)[C@@H]2C[C@@H](O)CN2C(=O)[C@@H](NC(=O)CCCCCCCCCCC(=O)N2CCN(CC#Cc3ccc(OCCCc4sc(N5CCCc6c5nnc(Nc5nc7ccccc7s5)c6C)nc4C(=O)O)c(F)c3)CC2)C(C)(C)C)cc1 [Example 48, 2-(3-(benzo[d]thiazol-2-ylamino)-4-methyl-6,7-dihydropyrido [2,3-c]pyridazin-8(5H)-yl)-5-(3-(2-fluoro-4-(3-(4-(12-(((S)-1-((2S,4R)-4-hydroxy-2-((4-(4-methylthiazol-5-yl)benzyl)carbamoyl)pyrrolidin-1-yl)-3,3-dimethyl-1-oxobutan-2-yl)amino)-12-oxododecanoyl)piperazin-1-yl)prop-1-yn-1-yl)phenoxy)propyl)thiazole-4-carboxylic acid] |  | 7.62 | 6.95 | 94 | 88.6 |

Second part, led by results:

| pIC50 (MOLT-4 cells) | pIC50 (NCI-H1650) | Compound | pIC50 (COR-L105) | Emax (COR-L105) [%] | Emax (NCI-H1650) [%] |
| --- | --- | --- | --- | --- | --- |
|  | 8.11 | Cc1ncsc1-c1ccc([C@H](C)NC(=O)[C@@H]2C[C@@H](O)CN2C(=O)[C@@H](NC(=O)CCCC(=O)N2CCN(CC#Cc3ccc(OCCCc4sc(N5CCCc6c5nnc(Nc5nc7ccccc7s5)c6C)nc4C(=O)O)c(F)c3)CC2)C(C)(C)C)cc1 [Example 35, 2-(3-(benzo[d]thiazol-2-ylamino)-4-methyl-6,7-dihydropyrido [2,3-c]pyridazin-8(5H)-yl)-5-(3-(2-fluoro-4-(3-(4-(5-(((S)-1-((2S,4R)-4-hydroxy-2-(((S)-1-(4-(4-methylthiazol-5-yl)phenyl)ethyl)carbamoyl)pyrrolidin-1-yl)-3,3-dimethyl-1-oxobutan-2-yl)amino)-5-oxopentanoyl)piperazin-1-yl)prop-1-yn-1-yl)phenoxy)propyl)thiazole-4-carboxylic acid] | 7.04 | 87.9 | 88.5 |
|  | 8.47 | Cc1ncsc1-c1ccc([C@H](C)NC(=O)[C@@H]2C[C@@H](O)CN2C(=O)[C@@H](NC(=O)CC23CC4CC(C2)CC(CC(=O)N2CCN(CC#Cc5ccc(OCCCc6sc(N7CCCc8c7nnc(Nc7nc9ccccc9s7)c8C)nc6C(=O)O)c(F)c5)CC2)(C4)C3)C(C)(C)C)cc1 [Example 42, 2-(3-(benzo[d]thiazol-2-ylamino)-4-methyl-6,7-dihydropyrido [2,3-c]pyridazin-8(5H)-yl)-5-(3-(2-fluoro-4-(3-(4-(2-((3S,5R)-3-(2-(((S)-1-((2S,4R)-4-hydroxy-2-(((S)-1-(4-(4-methylthiazol-5-yl)phenyl)ethyl)carbamoyl)pyrrolidin-1-yl)-3,3-dimethyl-1-oxobutan-2-yl)amino)-2-oxoethyl)adamantan-1-yl)acetyl)piperazin-1-yl)prop-1-yn-1-yl)phenoxy)propyl)thiazole-4-carboxylic acid] | 6.54 | 91.8 | 137 |
|  | 8.31 | Cc1ncsc1-c1ccc([C@H](C)NC(=O)[C@@H]2C[C@@H](O)CN2C(=O)[C@@H](NC(=O)CCCCCCCCCCC(=O)N2CCN(CC#Cc3ccc(OCCCc4sc(N5CCCc6c5nnc(Nc5nc7ccccc7s5)c6C)nc4C(=O)O)c(F)c3)CC2)C(C)(C)C)cc1 [Example 46, 2-(3-(benzo[d]thiazol-2-ylamino)-4-methyl-6,7-dihydropyrido [2,3-c]pyridazin-8(5H)-yl)-5-(3-(2-fluoro-4-(3-(4-(12-(((S)-1-((2S,4R)-4-hydroxy-2-(((S)-1-(4-(4-methylthiazol-5-yl)phenyl)ethyl)carbamoyl)pyrrolidin-1-yl)-3,3-dimethyl-1-oxobutan-2-yl)amino)-12-oxododecanoyl)piperazin-1-yl)prop-1-yn-1-yl)phenoxy)propyl)thiazole-4-carboxylic acid] | 6.79 | 101 | 83.2 |
|  | 8.37 | Cc1ncsc1-c1ccc([C@H](C)NC(=O)[C@@H]2C[C@@H](O)CN2C(=O)[C@@H](NC(=O)CCCCCCCCCCCN2CCN(CC#Cc3ccc(OCCCc4sc(N5CCCc6c5nnc(Nc5nc7ccccc7s5)c6C)nc4C(=O)O)c(F)c3)CC2)C(C)(C)C)cc1 [Example 51, 2-(3-(benzo[d]thiazol-2-ylamino)-4-methyl-6,7-dihydropyrido [2,3-c]pyridazin-8(5H)-yl)-5-(3-(2-fluoro-4-(3-(4-(12-(((S)-1-((2S,4R)-4-hydroxy-2-(((S)-1-(4-(4-methylthiazol-5-yl)phenyl)ethyl)carbamoyl)pyrrolidin-1-yl)-3,3-dimethyl-1-oxobutan-2-yl)amino)-12-oxododecyl)piperazin-1-yl)prop-1-yn-1-yl)phenoxy)propyl)thiazole-4-carboxylic acid] | 7.43 | 72.8 | 90.8 |
